Experimental data reported in paper PMC12281424, “A Rac-specific competitive inhibitor of guanine nucleotide binding reduces metastasis in triple-negative breast cancer” (Cell Reports Medicine, 2025).
Where “and” joins values, the source holds several entries; their conditions need not be identical. Equal entries are not always repeated.

Key:
PI3K (p120g)(h) = PI3K (p120g)(h) (Homo sapiens, UniProt P48736); assay: Kinase Profiler; format: biochemical
Method: (§1) Blood cell counts, kinase profiler, safety screen, bacterial cytotoxicity, Ames, micronucleus assays were performed by the company Eurofins (France). The kinase profiler was performed by the company Eurofins (Discovery, Panlab and Cerep).

FGFR3(h) = FGFR3(h) (Homo sapiens, UniProt P22607); assay: Kinase Profiler; format: biochemical
Method: (§2) The kinase profiler was performed by the company Eurofins (Discovery, Panlab and Cerep).

Cyclooxygenase COX-1 = Cyclooxygenase COX-1 (Homo sapiens, UniProt P23219); assay: Safety screen; format: biochemical
Method: as §1

[1] = target: PI3K (p110a(E542K)/p85a)(h) (Homo sapiens, UniProt P42336, E542K); assay: Kinase Profiler; format: biochemical
Method: as §2

GRK3(h) = GRK3(h) (Homo sapiens, UniProt P35626); assay: Kinase Profiler; format: biochemical
Method: as §1

TAO1(h) = TAO1(h) (Homo sapiens, UniProt Q7L7X3); assay: Kinase Profiler; format: biochemical
Method: as §1

GSK3α(h) = GSK3α(h) (Homo sapiens, UniProt P49840); assay: Kinase Profiler; format: biochemical
Method: as §1

PDGFRα(D842V)(h) = PDGFRα(D842V)(h) (Homo sapiens, UniProt P16234, D842V); assay: Kinase Profiler; format: biochemical
Method: as §2

PPARγ = PPARγ (Homo sapiens, UniProt P37231); assay: Safety screen; format: binding
Method: as §1

PI3K (p110b/p85b)(m) = PI3K (p110b/p85b)(m) (Mus musculus, UniProt Q8BTI9); assay: Kinase Profiler; format: biochemical
Method: as §1

MAP4K3(h) = MAP4K3(h) (Homo sapiens, UniProt Q8IVH8); assay: Kinase Profiler; format: biochemical
Method: as §2

MYO3B(h) = MYO3B(h) (Homo sapiens, UniProt Q8WXR4); assay: Kinase Profiler; format: biochemical
Method: as §2

MINK(h) = MINK(h) (Homo sapiens, UniProt Q8N4C8); assay: Kinase Profiler; format: biochemical
Method: as §2

[2] = target: PI3K (p110a(E545K)/p85a)(m) (Mus musculus, UniProt P42337, E545K); assay: Kinase Profiler; format: biochemical
Method: as §1

PKCζ(h) = PKCζ(h) (Homo sapiens, UniProt Q05513); assay: Kinase Profiler; format: biochemical
Method: as §2

EphA7(h) = EphA7(h) (Homo sapiens, UniProt Q15375); assay: Kinase Profiler; format: biochemical
Method: as §1

PKCδ(h) = PKCδ(h) (Homo sapiens, UniProt Q05655); assay: Kinase Profiler; format: biochemical
Method: as §2

BTK(h) = BTK(h) (Homo sapiens, UniProt Q06187); assay: Kinase Profiler; format: biochemical
Method: as §1

Chemokine CXCR2 (IL-8RB) = Chemokine CXCR2 (IL-8RB) (Homo sapiens, UniProt P25025); assay: Safety screen; format: binding
Method: (§3) Blood cell counts, kinase profiler, safety screen, bacterial cytotoxicity, Ames, micronucleus assays were performed by the company Eurofins (France).

MOK(h) = MOK(h) (Homo sapiens, UniProt Q9UQ07); assay: Kinase Profiler; format: biochemical
Method: as §2

Neuropeptide Y Y1 = Neuropeptide Y Y1 (Homo sapiens, UniProt P25929); assay: Safety screen; format: binding
Method: as §3

MLK4(h) = MLK4(h) (Homo sapiens, UniProt Q5TCX8); assay: Kinase Profiler; format: biochemical
Method: as §1

Blk(h) = Blk(h) (Homo sapiens, UniProt P51451); assay: Kinase Profiler; format: biochemical
Method: as §1

MSSK1(h) = MSSK1(h) (Homo sapiens, UniProt Q9UPE1); assay: Kinase Profiler; format: biochemical
Method: as §1

DRAK1(h) = DRAK1(h) (Homo sapiens, UniProt Q9UEE5); assay: Kinase Profiler; format: biochemical
Method: as §1

PKD3(h) = PKD3(h) (Homo sapiens, UniProt O94806); assay: Kinase Profiler; format: biochemical
Method: as §2

TA1537 = assay: Bacterial cytotoxicity; format: cell-based
Source text: Data S2. Bacterial cytotoxicity of A41.
Test Concentration %Effect Cytotoxicity (% of control) […]
Bacterial cytotoxicity (TA1537 - S9)

PAK4(h) = PAK4(h) (Homo sapiens, UniProt O96013); assay: Kinase Profiler; format: biochemical
Method: as §1

HIPK3(h) = HIPK3(h) (Homo sapiens, UniProt Q9H422); assay: Kinase Profiler; format: biochemical
Method: as §2

Potassium Channel hERG = Potassium Channel hERG (Homo sapiens, UniProt Q12809); assay: Safety screen; format: binding
Method: as §1

Adrenergic α2B = Adrenergic α2B (Homo sapiens, UniProt P18089); assay: Safety screen; format: binding
Method: as §3

Abl(m) = Abl(m) (Mus musculus, UniProt P00520); assay: Kinase Profiler; format: biochemical
Method: as §2

BrSK2(h) = BrSK2(h) (Homo sapiens, UniProt Q8IWQ3); assay: Kinase Profiler; format: biochemical
Method: as §1

Muscarinic M2 = Muscarinic M2 (Homo sapiens, UniProt P08172); assay: Safety screen; format: binding
Method: as §3

CK2α1(h) = CK2α1(h) (Homo sapiens, UniProt P68400); assay: Kinase Profiler; format: biochemical
Method: as §2

STK32C(h) = STK32C(h) (Homo sapiens, UniProt Q86UX6); assay: Kinase Profiler; format: biochemical
Method: as §2

WNK4(h) = WNK4(h) (Homo sapiens, UniProt Q96J92); assay: Kinase Profiler; format: biochemical
Method: as §2

PKD3(h), sequence (O94806 whole entry): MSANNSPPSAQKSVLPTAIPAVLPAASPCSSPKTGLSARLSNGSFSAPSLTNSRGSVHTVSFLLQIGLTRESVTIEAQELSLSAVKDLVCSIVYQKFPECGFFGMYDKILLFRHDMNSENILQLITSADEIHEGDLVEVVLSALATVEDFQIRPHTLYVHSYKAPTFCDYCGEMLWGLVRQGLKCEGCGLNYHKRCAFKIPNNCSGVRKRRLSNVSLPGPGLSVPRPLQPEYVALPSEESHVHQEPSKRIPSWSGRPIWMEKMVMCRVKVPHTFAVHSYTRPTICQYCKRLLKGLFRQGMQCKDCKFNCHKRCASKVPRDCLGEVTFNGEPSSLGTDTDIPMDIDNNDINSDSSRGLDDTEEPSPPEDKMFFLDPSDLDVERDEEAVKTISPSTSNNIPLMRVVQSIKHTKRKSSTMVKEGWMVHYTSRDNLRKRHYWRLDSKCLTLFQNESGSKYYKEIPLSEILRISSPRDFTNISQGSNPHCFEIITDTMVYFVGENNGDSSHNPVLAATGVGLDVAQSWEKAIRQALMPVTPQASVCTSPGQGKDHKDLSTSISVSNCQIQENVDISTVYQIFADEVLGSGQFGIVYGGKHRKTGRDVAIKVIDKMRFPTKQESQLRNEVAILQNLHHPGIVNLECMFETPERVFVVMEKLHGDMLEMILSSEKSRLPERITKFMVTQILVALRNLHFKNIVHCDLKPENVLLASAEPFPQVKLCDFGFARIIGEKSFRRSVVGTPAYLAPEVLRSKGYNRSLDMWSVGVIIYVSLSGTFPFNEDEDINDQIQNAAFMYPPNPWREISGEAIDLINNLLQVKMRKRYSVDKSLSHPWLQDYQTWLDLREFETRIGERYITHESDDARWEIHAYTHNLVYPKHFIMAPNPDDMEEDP
PI3K (p120g)(h), sequence (P48736 whole entry): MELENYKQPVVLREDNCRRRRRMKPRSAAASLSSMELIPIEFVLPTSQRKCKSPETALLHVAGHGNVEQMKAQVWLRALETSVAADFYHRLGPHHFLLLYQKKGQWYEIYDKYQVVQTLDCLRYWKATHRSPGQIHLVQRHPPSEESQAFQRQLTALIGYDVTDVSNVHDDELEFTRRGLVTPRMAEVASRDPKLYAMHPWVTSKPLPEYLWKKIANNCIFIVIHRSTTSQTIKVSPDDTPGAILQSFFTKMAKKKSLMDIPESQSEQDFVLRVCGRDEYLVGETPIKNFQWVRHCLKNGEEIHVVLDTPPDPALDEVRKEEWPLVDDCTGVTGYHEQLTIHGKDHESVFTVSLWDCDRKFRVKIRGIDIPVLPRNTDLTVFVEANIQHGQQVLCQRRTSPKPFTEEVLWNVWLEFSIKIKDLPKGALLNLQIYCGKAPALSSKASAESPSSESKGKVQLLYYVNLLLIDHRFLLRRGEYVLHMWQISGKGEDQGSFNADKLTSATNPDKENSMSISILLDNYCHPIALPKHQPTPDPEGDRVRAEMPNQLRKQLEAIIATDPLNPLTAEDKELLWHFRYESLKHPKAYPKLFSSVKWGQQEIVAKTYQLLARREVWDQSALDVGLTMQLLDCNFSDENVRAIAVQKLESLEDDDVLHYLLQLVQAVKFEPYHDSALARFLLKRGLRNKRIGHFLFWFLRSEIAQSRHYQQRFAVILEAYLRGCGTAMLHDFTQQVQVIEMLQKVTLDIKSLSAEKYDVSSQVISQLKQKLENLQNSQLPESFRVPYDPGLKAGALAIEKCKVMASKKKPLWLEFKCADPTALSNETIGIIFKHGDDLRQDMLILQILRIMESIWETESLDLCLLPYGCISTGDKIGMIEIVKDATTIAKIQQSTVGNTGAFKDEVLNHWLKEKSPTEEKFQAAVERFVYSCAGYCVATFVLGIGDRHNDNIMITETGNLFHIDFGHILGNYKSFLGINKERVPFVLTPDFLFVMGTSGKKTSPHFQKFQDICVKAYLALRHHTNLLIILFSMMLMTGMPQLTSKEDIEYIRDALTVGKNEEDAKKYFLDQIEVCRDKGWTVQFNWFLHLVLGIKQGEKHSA
Neuropeptide Y Y1, sequence (P25929 whole entry): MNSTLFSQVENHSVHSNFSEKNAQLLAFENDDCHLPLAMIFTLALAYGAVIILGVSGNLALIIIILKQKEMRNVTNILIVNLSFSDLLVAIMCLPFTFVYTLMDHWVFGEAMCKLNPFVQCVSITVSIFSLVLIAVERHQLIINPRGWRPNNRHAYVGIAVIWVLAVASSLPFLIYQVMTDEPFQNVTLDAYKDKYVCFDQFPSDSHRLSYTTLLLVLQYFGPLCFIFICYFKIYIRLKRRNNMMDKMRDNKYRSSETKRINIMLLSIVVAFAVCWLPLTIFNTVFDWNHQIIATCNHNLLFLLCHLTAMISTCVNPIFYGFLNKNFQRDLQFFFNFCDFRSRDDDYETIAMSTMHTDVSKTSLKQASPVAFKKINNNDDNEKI
MSSK1(h), sequence (Q9UPE1 whole entry): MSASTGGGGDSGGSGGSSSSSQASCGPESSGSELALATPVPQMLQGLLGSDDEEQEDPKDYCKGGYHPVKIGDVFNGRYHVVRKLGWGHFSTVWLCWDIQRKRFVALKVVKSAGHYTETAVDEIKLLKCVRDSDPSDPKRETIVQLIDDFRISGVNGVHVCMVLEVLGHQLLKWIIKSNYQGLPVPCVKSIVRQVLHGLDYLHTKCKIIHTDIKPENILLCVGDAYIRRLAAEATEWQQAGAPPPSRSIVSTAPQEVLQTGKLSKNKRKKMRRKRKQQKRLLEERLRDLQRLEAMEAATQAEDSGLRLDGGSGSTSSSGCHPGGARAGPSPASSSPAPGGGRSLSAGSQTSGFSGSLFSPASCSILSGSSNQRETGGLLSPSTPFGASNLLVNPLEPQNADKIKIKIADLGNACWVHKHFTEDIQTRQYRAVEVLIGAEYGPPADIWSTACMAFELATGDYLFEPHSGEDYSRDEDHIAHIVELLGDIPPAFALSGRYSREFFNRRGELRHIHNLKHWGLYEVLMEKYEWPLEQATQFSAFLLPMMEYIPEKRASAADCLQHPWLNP
PDGFRα(D842V)(h), sequence (P16234 24-1089 D842V): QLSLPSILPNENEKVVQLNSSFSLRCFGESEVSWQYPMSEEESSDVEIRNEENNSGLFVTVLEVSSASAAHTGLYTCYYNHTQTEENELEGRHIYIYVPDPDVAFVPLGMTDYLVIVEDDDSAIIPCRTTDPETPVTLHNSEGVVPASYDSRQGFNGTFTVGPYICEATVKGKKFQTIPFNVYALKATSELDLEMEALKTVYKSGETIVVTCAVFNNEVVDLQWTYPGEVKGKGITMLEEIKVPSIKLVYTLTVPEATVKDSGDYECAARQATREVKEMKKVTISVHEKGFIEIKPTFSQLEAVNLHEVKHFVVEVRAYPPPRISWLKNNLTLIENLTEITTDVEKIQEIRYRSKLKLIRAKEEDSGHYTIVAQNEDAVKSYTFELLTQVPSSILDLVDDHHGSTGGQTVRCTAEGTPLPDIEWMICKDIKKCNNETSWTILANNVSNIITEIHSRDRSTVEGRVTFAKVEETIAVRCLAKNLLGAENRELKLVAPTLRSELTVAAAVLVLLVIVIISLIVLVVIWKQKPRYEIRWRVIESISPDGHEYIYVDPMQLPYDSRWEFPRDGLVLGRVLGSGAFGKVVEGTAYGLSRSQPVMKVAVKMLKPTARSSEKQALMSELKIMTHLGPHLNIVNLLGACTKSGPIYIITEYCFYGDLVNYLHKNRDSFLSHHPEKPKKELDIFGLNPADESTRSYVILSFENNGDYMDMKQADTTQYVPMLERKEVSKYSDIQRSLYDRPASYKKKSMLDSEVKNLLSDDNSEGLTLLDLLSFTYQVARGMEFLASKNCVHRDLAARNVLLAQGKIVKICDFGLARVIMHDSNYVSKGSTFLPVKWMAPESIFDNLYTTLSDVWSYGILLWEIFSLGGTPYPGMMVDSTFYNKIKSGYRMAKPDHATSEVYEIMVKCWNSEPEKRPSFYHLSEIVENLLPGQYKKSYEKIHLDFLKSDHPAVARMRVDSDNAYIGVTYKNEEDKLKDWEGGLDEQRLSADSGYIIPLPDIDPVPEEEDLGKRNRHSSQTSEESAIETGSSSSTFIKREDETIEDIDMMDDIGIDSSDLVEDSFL
CK2α1(h), sequence (P68400 whole entry): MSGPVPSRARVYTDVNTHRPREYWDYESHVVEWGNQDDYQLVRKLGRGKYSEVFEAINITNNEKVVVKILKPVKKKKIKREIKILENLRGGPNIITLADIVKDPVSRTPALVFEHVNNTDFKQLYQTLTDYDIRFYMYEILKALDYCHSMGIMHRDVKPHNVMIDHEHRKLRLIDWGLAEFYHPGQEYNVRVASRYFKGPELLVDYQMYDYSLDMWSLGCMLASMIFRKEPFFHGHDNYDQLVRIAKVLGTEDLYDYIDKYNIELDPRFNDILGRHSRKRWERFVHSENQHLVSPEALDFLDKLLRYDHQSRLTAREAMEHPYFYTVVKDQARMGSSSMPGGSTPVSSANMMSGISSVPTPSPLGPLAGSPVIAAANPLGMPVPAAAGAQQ
Muscarinic M2, sequence (P08172 whole entry): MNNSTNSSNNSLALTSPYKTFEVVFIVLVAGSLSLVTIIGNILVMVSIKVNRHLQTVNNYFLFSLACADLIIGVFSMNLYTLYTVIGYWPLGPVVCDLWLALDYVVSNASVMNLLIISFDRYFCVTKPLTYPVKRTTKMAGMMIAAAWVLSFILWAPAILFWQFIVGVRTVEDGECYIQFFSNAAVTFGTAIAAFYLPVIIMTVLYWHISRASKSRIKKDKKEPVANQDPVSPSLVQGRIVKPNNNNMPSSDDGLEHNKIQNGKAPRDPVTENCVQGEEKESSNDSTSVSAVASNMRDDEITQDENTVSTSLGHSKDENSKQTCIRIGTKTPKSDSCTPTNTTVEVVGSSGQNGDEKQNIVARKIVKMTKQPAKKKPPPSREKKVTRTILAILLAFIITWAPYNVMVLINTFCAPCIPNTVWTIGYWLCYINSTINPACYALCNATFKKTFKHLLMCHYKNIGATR

COc1ccc(OC)c(NS(=O)(=O)c2ccc(NC(=O)CCSc3ccc(C)cc3)cc2)c1 [Compound A41]
Activity(%) (PI3K (p120g)(h)): 104% | Activity(%) (FGFR3(h)): 89% | % inh. (Cyclooxygenase COX-1): -11% | Activity(%) [1]: 105% | Activity(%) (GRK3(h)): 106% | Activity(%) (TAO1(h)): 118% | Activity(%) (GSK3α(h)): 90% | Activity(%) (PDGFRα(D842V)(h)): 112% | % inh. (PPARγ): -7% | Activity(%) (PI3K (p110b/p85b)(m)): 100% | Activity(%) (MAP4K3(h)): 98% | Activity(%) (MYO3B(h)): 106% | Activity(%) (MINK(h)): 114% | Activity(%) [2]: 100% | Activity(%) (PKCζ(h)): 97% | Activity(%) (EphA7(h)): 108% | Activity(%) (PKCδ(h)): 110% | Activity(%) (BTK(h)): 117% | % inh. (Chemokine CXCR2 (IL-8RB)): 1% | Activity(%) (MOK(h)): 90% | % inh. (Neuropeptide Y Y1): -2% | Activity(%) (MLK4(h)): 104% | Activity(%) (Blk(h)): 99% | Activity(%) (MSSK1(h)): 125% | Activity(%) (DRAK1(h)): 101% | Activity(%) (PKD3(h)): 104% | %Effect, single replicates (1st, 2nd, 3rd) (TA1537; - S9, 1.0E-04 M): 222.5% and 214.4% and 229.2% | Cytotoxicity (% of control), Mean %Effect (TA1537; - S9, 1.0E-04 M): 222.0% | %Effect, single replicates (1st, 2nd, 3rd) (TA1537; - S9, 1.0E-05 M): 109.9% and 108.6% and 111.2% | Cytotoxicity (% of control), Mean %Effect (TA1537; - S9, 1.0E-05 M): 109.9% | %Effect, single replicates (1st, 2nd, 3rd) (TA1537; - S9, 1.2E-06 M): 109.9% and 108.6% and 101.9% | Cytotoxicity (% of control), Mean %Effect (TA1537; - S9, 1.2E-06 M): 106.8% | %Effect, single replicates (1st, 2nd, 3rd) (TA1537; - S9, 2.5E-05 M): 128.7% and 115.3% and 112.6% | Cytotoxicity (% of control), Mean %Effect (TA1537; - S9, 2.5E-05 M): 118.8% | %Effect, single replicates (1st, 2nd, 3rd) (TA1537; - S9, 2.5E-06 M): 111.2% and 104.5% and 99.2% | Cytotoxicity (% of control), Mean %Effect (TA1537; - S9, 2.5E-06 M): 105.0% | %Effect, single replicates (1st, 2nd, 3rd) (TA1537; - S9, 5.0E-05 M): 162.2% and 150.1% and 148.8% | Cytotoxicity (% of control), Mean %Effect (TA1537; - S9, 5.0E-05 M): 153.7% | %Effect, single replicates (1st, 2nd, 3rd) (TA1537; - S9, 5.0E-06 M): 116.6% and 111.2% and 100.5% | Cytotoxicity (% of control), Mean %Effect (TA1537; - S9, 5.0E-06 M): 109.4% | %Effect, single replicates (1st, 2nd, 3rd) (TA1537; - S9, 6.0E-07 M): 107.2% (2×) and 115.3% | Cytotoxicity (% of control), Mean %Effect (TA1537; - S9, 6.0E-07 M): 109.9% | Activity(%) (PAK4(h)): 106% | Activity(%) (HIPK3(h)): 95% | % inh. (Potassium Channel hERG): 22% | % inh. (Adrenergic α2B): 9% | Activity(%) (Abl(m)): 125% | Activity(%) (BrSK2(h)): 118% | % inh. (Muscarinic M2): 12% | Activity(%) (CK2α1(h)): 80% | Activity(%) (STK32C(h)): 105% | Activity(%) (WNK4(h)): 107%
